Measured values as given in ChEMBL document CHEMBL1151383, “Antitumor agents 50. 1 Morindaparvin-A, a new antileukemic anthraquinone, and alizarin-1-methyl ether from Morinda parvifolia, and the antileukemic activity of the related derivatives” (1982).
≈ marks a conversion by molar mass, not a printed value. Calls of active or inactive are those of the source. The rule behind the calls is not given here.

Columns and labels:
Format in all cases: functional
[1] = tested on: P388; experiment: Antileukemic activity against mouse P388 cells xenografted in BDF1 mouse at 10 mg/kg/day relative to control
[2] = Antitumor activity against mouse CA-755 cells xenografted in mouse assessed as reduction in tumor weight at 450 mg/kg/day; parameters: scale not given: the % may be the effect or the level left
[3] = tested on: KB; experiment: Cytotoxicity against human KB cells; settings: read-out: ED50 (the source's name)
[4] = tested on: P388; experiment: Cytotoxicity against mouse P388 cells; settings: read-out: ED50 (the source's name)

Row | SMILES | T/C [1] [%] | Activity [1] | further results
1 | COc1ccc2c(c1O)C(=O)c1ccccc1C2=O | 126 | – | –
2 | O=C(/C=C/c1ccccc1)Oc1ccc2c(c1O)C(=O)c1ccccc1C2=O | – | inactive | –
3 | O=C(/C=C/c1ccccc1)Oc1ccc2c(c1OC(=O)/C=C/c1ccccc1)C(=O)c1ccccc1C2=O | – | inactive | –
4 | CC(C)=CC(=O)Oc1ccc2c(c1O)C(=O)c1ccccc1C2=O | – | inactive | –
5 | O=C1c2ccccc2C(=O)c2c1ccc1c2OCCO1 | 130 | – | –
6 | O=C1c2ccccc2C(=O)c2c1ccc(O)c2O [ATHRAQUINONES A] | 134 | – | Activity [2]: 60%
7 | CC(C)=CC(=O)Oc1ccc2c(c1OC(=O)C=C(C)C)C(=O)c1ccccc1C2=O | – | inactive | –
8 | CC(=O)Oc1ccc2c(c1O)C(=O)c1ccccc1C2=O | – | inactive | –
9 | O=C1c2ccccc2C(=O)c2c1ccc1c2OCO1 | 129 | – | EC50 [3]: > 10 µg/mL; EC50 [4]: 1.85 µg/mL (≈ 7.33 µM)
10 | CC(=O)Oc1ccc2c(c1OC(C)=O)C(=O)c1ccccc1C2=O | – | inactive | –
11 | COc1c(O)ccc2c1C(=O)c1ccccc1C2=O | 136 | – | EC50 [3]: > 10 µg/mL; EC50 [4]: 27 µg/mL (≈ 106 µM)
